BAW rating, CL rating and pest or weed control data for 21 compounds are collected here from patent US20230077362A1 (CORTEVA AGRISCIENCE LLC, priority 2019, published 2023).

Assay [1] deals with Beet Armyworm (Spodoptera exigua) ("BAW"), second instar larvae. Description: Bioassay on beet armyworm (BAW), 128-well diet tray assay. In kind it is in vivo. To be noted: for pest or weed control at 50 µg/cm2: Spodoptera exigua, read-out: BAW rating. The essentials:
(§1)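 Each value represents average percent mortality from eight wells. Larvae were kept in clear-covered trays at 25° C. for five to seven days on a 14-hour light, 10-hour dark schedule before scoring.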

Assay [2] has as its system Cabbage Looper (Trichoplusia ni) ("CL"), second instar larvae. The assay is described as follows: Bioassay on cabbage looper (CL), 128-well diet tray assay. The assay is classed as in vivo. To be noted: for pest or weed control at 50 µg/cm2: Trichoplusia ni, read-out: CL rating. The essentials:
as §1

As for `CCCc1ccc(C)cc1N1C(=O)CS/C1=N\C(=O)Nc1ccc(-c2ncn(-c3ccc(S(F)(F)(F)(F)F)cc3)n2)cc1F` [Compound J498], the BAW rating entry in assay [1] (Table ABC, species BAW, C = not tested, D = no activity noticed) is on record as “A (50-100)”. Besides, the CL rating entry in assay [2] (Table ABC, species CL, C = not tested, D = no activity noticed) is on record as “A (50-100)”.

As to `Cc1ccc(C(C)C)c(N2C(=O)CS/C2=N\C(=O)Nc2ccc(-c3nnc(-c4ccc(OC(F)(F)F)cc4)s3)cc2F)c1` [Compound J499, (Z)-1-(2-Fluoro-4-(5-(4-(trifluoromethoxy)phenyl)-1,3,4-thiadiazol-2-yl)phenyl)-3-(3-(2-isopropyl-5-methylphenyl)-4-oxothiazolidin-2-ylidene)urea], the pest or weed control at 50 µg/cm2 in assay [1] and in assay [2] was 50 to 100% each time.

Regarding `Cc1ccc(COCC(F)(F)F)c(N2C(=O)CS/C2=N\C(=O)Nc2ccc(-c3nnc(-c4ccc(OC(F)(F)F)cc4)s3)cc2F)c1` [Compound J500, (Z)-1-(2-Fluoro-4-(5-(4-(trifluoromethoxy)phenyl)-1,3,4-thiadiazol-2-yl)phenyl)-3-(3-(5-methyl-2-((2,2,2-trifluoroethoxy)methyl)phenyl)-4-oxothiazolidin-2-ylidene)urea], the pest or weed control at 50 µg/cm2 in assay [1] and in assay [2] was 50 to 100% in each case.

On to `COC(C)c1ccc(C)cc1N1C(=O)CS/C1=N\C(=O)Nc1ccc(-c2nnc(-c3ccc(OC(F)(F)F)cc3)s2)cc1F` (stereo not drawn) [Compound J504, (Z)-1-(2-Fluoro-4-(5-(4-(trifluoromethoxy)phenyl)-1,3,4-thiadiazol-2-yl)phenyl)-3-(3-(2-(1-methoxyethyl)-5-methylphenyl)-4-oxothiazolidin-2-ylidene)urea], for which the pest or weed control at 50 µg/cm2 in assay [1] lay in the range of 0 to 50%; in assay [2], 50 to 100%.

For the compound `CC(C)c1ccc(N(C)C)cc1N1C(=O)CS/C1=N\C(=O)Nc1ccc(-c2nnc(-c3ccc(OC(F)(F)F)cc3)s2)cc1F` [Compound J506, (Z)-1-(3-(5-(Dimethylamino)-2-isopropylphenyl)-4-oxothiazolidin-2-ylidene)-3-(2-fluoro-4-(5-(4-(trifluoromethoxy)phenyl)-1,3,4-thiadiazol-2-yl)phenyl)urea], the pest or weed control at 50 µg/cm2 in assay [1] and in assay [2] was 50 to 100% in each case.

`CC(C)c1cc(F)c(N(C)C)cc1N1C(=O)CS/C1=N\C(=O)Nc1ccc(-c2nnc(-c3ccc(OC(F)(F)F)cc3)s2)cc1F` [Compound J507, (Z)-1-(3-(5-(Dimethylamino)-4-fluoro-2-isopropylphenyl)-4-oxothiazolidin-2-ylidene)-3-(2-fluoro-4-(5-(4-(trifluoromethoxy)phenyl)-1,3,4-thiadiazol-2-yl)phenyl)urea]: the pest or weed control at 50 µg/cm2 in assay [1] and in assay [2] was 50 to 100% each time.

On to `COC(C)c1ccc(C)cc1N1C(=O)CS/C1=N\C(=O)Nc1ccc(-c2cn(-c3ccc(C(F)(F)F)cn3)cn2)cc1C` (stereo not drawn) [Compound J508, (Z)-1-(3-(2-(1-Methoxyethyl)-5-methylphenyl)-4-oxothiazolidin-2-ylidene)-3-(2-methyl-4-(1-(5-(trifluoromethyl)pyridin-2-yl)-1H-imidazol-4-yl)phenyl)urea], for which the pest or weed control at 50 µg/cm2 in assay [1] and in assay [2] was 50 to 100% throughout.

`Cc1ccc(C(C)C)c(N2C(=O)CS/C2=N\C(=O)Nc2ccc(-c3cn(-c4ccc(C(F)(F)F)cn4)cn3)cc2C)c1` [Compound J509, (Z)-1-(3-(2-Isopropyl-5-methylphenyl)-4-oxothiazolidin-2-ylidene)-3-(2-methyl-4-(1-(5-(trifluoromethyl)pyridin-2-yl)-1H-imidazol-4-yl)phenyl)urea]: the pest or weed control at 50 µg/cm2 in assay [1] and in assay [2] was 50 to 100% in each case.

`Cc1ccc(COCC(F)(F)F)c(N2C(=O)CS/C2=N\C(=O)Nc2ccc(-c3cn(-c4ccc(C(F)(F)F)cn4)cn3)cc2C)c1` [Compound J511, (Z)-1-(3-(5-Methyl-2-((2,2,2-trifluoroethoxy)methyl)phenyl)-4-oxothiazolidin-2-ylidene)-3-(2-methyl-4-(1-(5-(trifluoromethyl)pyridin-2-yl)-1H-imidazol-4-yl)phenyl)urea]: the pest or weed control at 50 µg/cm2 in assay [1] and in assay [2] was 50 to 100% in each case.

Consider `Cc1ccc(OCCC(F)(F)F)c(N2C(=O)CS/C2=N\C(=O)Nc2ccc(-c3cn(-c4ccc(C(F)(F)F)cn4)cn3)cc2C)c1` [Compound J512, (Z)-1-(3-(5-Methyl-2-(3,3,3-trifluoropropoxy)phenyl)-4-oxothiazolidin-2-ylidene)-3-(2-methyl-4-(1-(5-(trifluoromethyl)pyridin-2-yl)-1H-imidazol-4-yl)phenyl)urea], for which the pest or weed control at 50 µg/cm2 in assay [1] and in assay [2] was 50 to 100% each time.

As for `COC(C)c1ccc(C)cc1N1C(=O)CS/C1=N\C(=O)Nc1ccc(-c2cn(-c3ccc(C(F)(F)F)cc3)cn2)cc1` (stereo not drawn) [Compound J513, (Z)-1-(3-(2-(1-Methoxyethyl)-5-methylphenyl)-4-oxothiazolidin-2-ylidene)-3-(4-(1-(4-(trifluoromethyl)phenyl)-1H-imidazol-4-yl)phenyl)urea], the pest or weed control at 50 µg/cm2 in assay [1] and in assay [2] was 50 to 100% in each case.

Consider `Cc1ccc(C(C)C)c(N2C(=O)CS/C2=N\C(=O)Nc2ccc(-c3cn(-c4ccc(C(F)(F)F)cc4)cn3)cc2)c1` [Compound J514, (Z)-1-(3-(2-Isopropyl-5-methylphenyl)-4-oxothiazolidin-2-ylidene)-3-(4-(1-(4-(trifluoromethyl)phenyl)-1H-imidazol-4-yl)phenyl)urea], for which the pest or weed control at 50 µg/cm2 in assay [1] and in assay [2] was 50 to 100% each time.

Regarding `CC(C)c1ccc(N(C)C)cc1N1C(=O)CS/C1=N\C(=O)Nc1ccc(-c2cn(-c3ccc(C(F)(F)F)cc3)cn2)cc1` [Compound J515, (Z)-1-(3-(5-(Dimethylamino)-2-isopropylphenyl)-4-oxothiazolidin-2-ylidene)-3-(4-(1-(4-(trifluoromethyl)phenyl)-1H-imidazol-4-yl)phenyl)urea], the pest or weed control at 50 µg/cm2 in assay [1] and in assay [2] was 50 to 100% throughout.

With `Cc1ccc(COCC(F)(F)F)c(N2C(=O)CS/C2=N\C(=O)Nc2ccc(-c3cn(-c4ccc(C(F)(F)F)cc4)cn3)cc2)c1` [Compound J516, (Z)-1-(3-(5-Methyl-2-((2,2,2-trifluoroethoxy)methyl)phenyl)-4-oxothiazolidin-2-ylidene)-3-(4-(1-(4-(trifluoromethyl)phenyl)-1H-imidazol-4-yl)phenyl)urea], the pest or weed control at 50 µg/cm2 in assay [1] and in assay [2] was 50 to 100% throughout.

Take `Cc1ccc(OCCC(F)(F)F)c(N2C(=O)CS/C2=N\C(=O)Nc2ccc(-c3cn(-c4ccc(C(F)(F)F)cc4)cn3)cc2)c1` [Compound J517, (Z)-1-(3-(5-Methyl-2-(3,3,3-trifluoropropoxy)phenyl)-4-oxothiazolidin-2-ylidene)-3-(4-(1-(4-(trifluoromethyl)phenyl)-1H-imidazol-4-yl)phenyl)urea]: the pest or weed control at 50 µg/cm2 in assay [1] and in assay [2] was 50 to 100% throughout.

On to `COC(C)c1ccc(C)cc1N1C(=O)CS/C1=N\C(=O)Nc1ccc(-c2cn(-c3ccc(C(F)(F)F)cn3)cn2)cc1` (stereo not drawn) [Compound J518, (Z)-1-(3-(2-(1-Methoxyethyl)-5-methylphenyl)-4-oxothiazolidin-2-ylidene)-3-(4-(1-(5-(trifluoromethyl)pyridin-2-yl)-1H-imidazol-4-yl)phenyl)urea], for which the pest or weed control at 50 µg/cm2 in assay [1] and in assay [2] was 50 to 100% in each case.

`Cc1ccc(C(C)C)c(N2C(=O)CS/C2=N\C(=O)Nc2ccc(-c3cn(-c4ccc(C(F)(F)F)cn4)cn3)cc2)c1` [Compound J519, (Z)-1-(3-(2-Isopropyl-5-methylphenyl)-4-oxothiazolidin-2-ylidene)-3-(4-(1-(5-(trifluoromethyl)pyridin-2-yl)-1H-imidazol-4-yl)phenyl)urea]: the pest or weed control at 50 µg/cm2 in assay [1] and in assay [2] was 50 to 100% throughout.

For the compound `CC(C)c1ccc(N(C)C)cc1N1C(=O)CS/C1=N\C(=O)Nc1ccc(-c2cn(-c3ccc(C(F)(F)F)cn3)cn2)cc1` [Compound J520, (Z)-1-(3-(5-(Dimethylamino)-2-isopropylphenyl)-4-oxothiazolidin-2-ylidene)-3-(4-(1-(5-(trifluoromethyl)pyridin-2-yl)-1H-imidazol-4-yl)phenyl)urea], the pest or weed control at 50 µg/cm2 in assay [1] and in assay [2] was 50 to 100% in each case.

Take `Cc1ccc(COCC(F)(F)F)c(N2C(=O)CS/C2=N\C(=O)Nc2ccc(-c3cn(-c4ccc(C(F)(F)F)cn4)cn3)cc2)c1` [Compound J521, (Z)-1-(3-(5-Methyl-2-((2,2,2-trifluoroethoxy)methyl)phenyl)-4-oxothiazolidin-2-ylidene)-3-(4-(1-(5-(trifluoromethyl)pyridin-2-yl)-1H-imidazol-4-yl)phenyl)urea]: the pest or weed control at 50 µg/cm2 in assay [1] and in assay [2] was 50 to 100% throughout.

Regarding `Cc1ccc(OCCC(F)(F)F)c(N2C(=O)CS/C2=N\C(=O)Nc2ccc(-c3cn(-c4ccc(C(F)(F)F)cn4)cn3)cc2)c1` [Compound J522, (Z)-1-(3-(5-Methyl-2-(3,3,3-trifluoropropoxy)phenyl)-4-oxothiazolidin-2-ylidene)-3-(4-(1-(5-(trifluoromethyl)pyridin-2-yl)-1H-imidazol-4-yl)phenyl)urea], the pest or weed control at 50 µg/cm2 in assay [1] and in assay [2] was 50 to 100% each time.

As to `Cc1ccc(C(C)C)c(N2C(=O)CS/C2=N\C(=O)Nc2ccc(-c3cn(-c4ccc(C(F)(F)F)cc4)cn3)cc2C)c1` [Compound J523, (Z)-1-(3-(2-Isopropyl-5-methylphenyl)-4-oxothiazolidin-2-ylidene)-3-(2-methyl-4-(1-(4-(trifluoromethyl)phenyl)-1H-imidazol-4-yl)phenyl)urea], the pest or weed control at 50 µg/cm2 in assay [1] and in assay [2] was 50 to 100% each time.
